What was measured:
Type in all cases: cell-based, human
[1] = tested on: PC-3 cells; assay: WST-1 cell proliferation assay, PC-3; conditions: for IC50: Homo sapiens, PC-3, 72 h, WST-1, three days of exposure, mean ± SD, n = 3; for IC50 (Silibinin)/IC50(Derivative) PC-3: fold potency relative to silibinin
Procedure: (§1) The in vitro antiproliferative activities of six 7-O-substituted and 26 3-O-substituted silybin derivatives were evaluated using the WST-1 cell proliferation assay, according to the procedure as described in the Experimental Section in both androgen-sensitive (LNCaP) and androgen-insensitive (PC-3 and DU145) human prostate cancer cell lines. Silibinin and docetaxel were used as a positive control for comparison in the parallel experiments and the IC50 values calculated from the dose-response curves are summarized in Table 1. […] A three-carbon linker in 11 and 29, as well as a five-carbon linker in 31, 37 and 40, are beneficial to the potency.
(§2) All cell lines were initially purchased from American Type Culture Collection (ATCC^TM) (Manassas, VA, USA). The PC-3 and LNCaP prostate cancer cell lines were routinely cultured in RPIM-1640 medium supplemented with 10% FBS and 1% penicillin/streptomycin. The DU145 prostate cancer cells were routinely cultured in Eagle’s Minimum Essential Medium (EMEM) supplemented with 10% FBS and 1% penicillin/streptomycin. Cultures were maintained in a high humidity environment supplemented with 5% carbon dioxide at a temperature of 37 °C.
(§3) PC-3, DU145, or LNCaP cells were plated in 96-well plates at a density of 3,200 per well in 200 µL of culture medium. The cells were then separately treated with silibinin, or synthesized silibinin derivatives, at five different doses for three days, while equal treatment volumes of DMSO (0.25%) were used as the vehicle control. The cells were cultured in a CO2 incubator at 37 °C for three days. A total of 10 µL of the premixed WST-1 cell proliferation reagent (Clontech) was added to each well. After mixing gently for one min on an orbital shaker, the cells were incubated for an additional 3 h at 37 °C. To ensure a homogeneous distribution of color, it is important to mix gently on an orbital shaker for one min. The absorbance of each well was measured using a microplate reader (Synergy HT, BioTek, Winooski, VT, USA) at a wavelength of 430 nm. […] For calculating the IC50 values, a linear proliferative inhibition was made based on at least five dosages for each compound.

[2] = tested on: LNCaP cells; assay: WST-1 cell proliferation assay, LNCaP; conditions: for IC50: Homo sapiens, LNCaP, 72 h, WST-1, three days of exposure, mean ± SD, n = 3; for IC50 (Silibinin)/IC50(Derivative) LNCaP: fold potency relative to silibinin
Procedure: as §1, §2, §3

[3] = tested on: DU145 cells; assay: WST-1 cell proliferation assay, DU145; conditions: for IC50: Homo sapiens, DU-145, 72 h, WST-1, three days of exposure, mean ± SD, n = 3; for IC50 (Silibinin)/IC50(Derivative) DU145: fold potency relative to silibinin
Procedure: as §1, §2, §3

| Compound | IC50 [1] [µM] | IC50 (Silibinin)/IC50(Derivative) PC-3 [1] | IC50 [2] [µM] | IC50 (Silibinin)/IC50(Derivative) LNCaP [2] | IC50 [3] [µM] | IC50 (Silibinin)/IC50(Derivative) DU145 [3] |
| --- | --- | --- | --- | --- | --- | --- |
| COc1cc(OC)c2c(=O)c(OCCCN3CCNCC3)c(-c3ccc4c(c3)OC(c3ccc(OC)c(OC)c3)C(CO)O4)oc2c1 (stereo not drawn) [Compound 41] | 9.98 ± 4.94 | 7 | 11.4 ± 5.91 | 4 | > 50 | <2 |
| CCN(CC)CCCOc1cc(OC)c2c(=O)c(OC)c(-c3ccc4c(c3)OC(c3ccc(OC)c(OC)c3)C(CO)O4)oc2c1 (stereo not drawn) [Compound 10] | 9.92 ± 0.43 | 7 | 7.49 ± 0.16 | 6 | 8.62 ± 0.32 | 11 |
| COc1cc(OC)c2c(=O)c(OCCCCN3CCCCC3)c(-c3ccc4c(c3)OC(c3ccc(OC)c(OC)c3)C(CO)O4)oc2c1 (stereo not drawn) [Compound 36] | 24.1 ± 10.6 | 3 | 27.3 ± 5.42 | 2 | 67 ± 13.7 | 1 |
| CCN(CC)CCCOc1c(-c2ccc3c(c2)OC(c2ccc(OC)c(OC)c2)C(CO)O3)oc2cc(OC)cc(OC)c2c1=O (stereo not drawn) [Compound 23] | 5.16 ± 0.94 | 14 | 3.09 ± 0.15 | 14 | 9.21 ± 0.37 | 10 |
| CCCN(CCC)CCCCOc1c(-c2ccc3c(c2)OC(c2ccc(OC)c(OC)c2)C(CO)O3)oc2cc(OC)cc(OC)c2c1=O (stereo not drawn) [Compound 27] | 3.77 ± 0.41 | 19 | 4.02 ± 1.55 | 11 | 5.39 ± 0.53 | 17 |
| COc1cc(OC)c2c(=O)c(OCCCCN3CCCC3)c(-c3ccc4c(c3)OC(c3ccc(OC)c(OC)c3)C(CO)O4)oc2c1 (stereo not drawn) [Compound 33] | 7.49 ± 1.98 | 10 | 8.06 ± 1.44 | 5 | 19.8 ± 2.38 | 5 |
| COc1ccc(C2Oc3cc(-c4oc5cc(OCCCN6CCN(C)CC6)cc(OC)c5c(=O)c4OC)ccc3OC2CO)cc1OC (stereo not drawn) [Compound 14] | 25.7 ± 3.39 | 3 | 16.4 ± 3.47 | 3 | 19.4 ± 0.88 | 5 |
| COc1cc(OC)c2c(=O)c(OCCCCCN3CCN(C)CC3)c(-c3ccc4c(c3)OC(c3ccc(OC)c(OC)c3)C(CO)O4)oc2c1 (stereo not drawn) [Compound 45] | 4.72 ± 0.88 | 15 | 5.66 ± 0.44 | 8 | 8.59 ± 2.23 | 11 |
| COc1cc(OC)c2c(=O)c(OCCCN(C)C)c(-c3ccc4c(c3)OC(c3ccc(OC)c(OC)c3)C(CO)O4)oc2c1 (stereo not drawn) [Compound 20, 3-O-(N,N-Dimethylamino)propyl-5,7,20-O-trimethyl-2,3-dehydrosilybin] | 9.09 ± 1.48 | 8 | 20.7 ± 5.34 | 2 | 32.7 ± 5.32 | 3 |
| CCN(CC)CCCCOc1c(-c2ccc3c(c2)OC(c2ccc(OC)c(OC)c2)C(CO)O3)oc2cc(OC)cc(OC)c2c1=O (stereo not drawn) [Compound 24] | 5.76 ± 1.36 | 11 | 5.19 ± 2.08 | 13 | 8.18 ± 0.42 | 8 |
| COc1ccc(C2Oc3cc(-c4oc5cc(OCCCN6CCCC6)cc(OC)c5c(=O)c4OC)ccc3OC2CO)cc1OC (stereo not drawn) [Compound 12] | 25.1 ± 1 | 3 | 11 ± 0.99 | 4 | 19.6 ± 0.47 | 5 |

Compounds with a lower IC50 [1], results first:

| IC50 [1] [µM] | IC50 (Silibinin)/IC50(Derivative) PC-3 [1] | IC50 [2] [µM] | IC50 (Silibinin)/IC50(Derivative) LNCaP [2] | IC50 [3] [µM] | IC50 (Silibinin)/IC50(Derivative) DU145 [3] | Compound |
| --- | --- | --- | --- | --- | --- | --- |
| 3.49 ± 0.24 | 21 | 2.84 ± 0.22 | 15 | 6.36 ± 0.37 | 15 | COc1cc(OC)c2c(=O)c(OCCCCN3CCOCC3)c(-c3ccc4c(c3)OC(c3ccc(OC)c(OC)c3)C(CO)O4)oc2c1 (stereo not drawn) [Compound 39] |
| 3.47 ± 2.23 | 21 | 5.07 ± 0.52 | 9 | 6.73 ± 0.45 | 14 | COc1cc(OC)c2c(=O)c(OCCCCCN(C)C)c(-c3ccc4c(c3)OC(c3ccc(OC)c(OC)c3)C(CO)O4)oc2c1 (stereo not drawn) [Compound 22] |
| 3.3 ± 0.86 | 22 | 2.7 ± 0.47 | 16 | 5.78 ± 1.36 | 16 | CCCN(CCC)CCCCCOc1c(-c2ccc3c(c2)OC(c2ccc(OC)c(OC)c2)C(CO)O3)oc2cc(OC)cc(OC)c2c1=O (stereo not drawn) [Compound 28] |
| 2.95 ± 0.76 | 25 | 3.92 ± 1.67 | 11 | 5.9 ± 1.3 | 16 | COc1cc(OC)c2c(=O)c(OCCCCCN3CCCC3)c(-c3ccc4c(c3)OC(c3ccc(OC)c(OC)c3)C(CO)O4)oc2c1 (stereo not drawn) [Compound 34] |
| 2.94 ± 0.13 | 25 | 1.74 ± 0.97 | 25 | 10.6 ± 0.63 | 9 | COc1cc(OC)c2c(=O)c(OCCCN3CCOCC3)c(-c3ccc4c(c3)OC(c3ccc(OC)c(OC)c3)C(CO)O4)oc2c1 (stereo not drawn) [Compound 38] |
